Reference: patent US11390613B2, “Azole analogues and methods of use thereof” (UNIVERSITY OF CONNECTICUT, priority 2017, dated 2022)
Converted amounts (≈) assume the structure as drawn.

Tested on: primary murine Hh-dependent MB cell line (MERP)
Assay: Antiproliferation in primary Hh-dependent MB cells (MERP)
Type: cell-based
Details: Mus musculus, Table 6
Method: Secondary In Vitro Evaluation. Based on their activity in ASZ cells, several compounds were evaluated further in a primary murine Hh-dependent MB cell line (MERP).
(§1) General Information for Cell Culture Studies Protocols for general cell culture, qPCR, and Hh inhibition ASZ cells are as previously described.
(§2) General Information for Cell Culture Studies. Protocols for general cell culture, qPCR, and Hh inhibition ASZ cells are as previously described.

| SMILES | IC50 [nM] |
| --- | --- |
| C[C@@]1(c2ccc(Cl)cc2Cl)OC[C@@H](COc2ccc(N3CCN(c4ccc(NC(=O)c5cccc(O)c5)cc4)CC3)cc2)O1 [Compound 27, N-(4-(4-(4-(((2R,4R)-2-(2,4-dichlorophenyl)-2-methyl-1,3-dioxolan-4-yl)methoxy)phenyl)piperazin-1-yl)phenyl)-3-hydroxybenzamide] | 2800 ± 1500 |

Tested on: not listed separately
Assay: Solubility
Details: not given

| SMILES | Solubility [nM] |
| --- | --- |
| C[C@@]1(c2ccc(Cl)cc2Cl)OC[C@@H](COc2ccc(N3CCN(c4ccc(NC(=O)c5cccc(O)c5)cc4)CC3)cc2)O1 [Compound 27, N-(4-(4-(4-(((2R,4R)-2-(2,4-dichlorophenyl)-2-methyl-1,3-dioxolan-4-yl)methoxy)phenyl)piperazin-1-yl)phenyl)-3-hydroxybenzamide] | 1.4 (≈ 0.888 ng/mL) |

Tested on: not listed separately
Assay: Metabolic half-life and clearance (HLM)
Type: in vitro ADME
Details: not given

| SMILES | T1/2 (HLM, min) [min] |
| --- | --- |
| C[C@@]1(c2ccc(Cl)cc2Cl)OC[C@@H](COc2ccc(N3CCN(c4ccc(NC(=O)c5cccc(O)c5)cc4)CC3)cc2)O1 [Compound 27, N-(4-(4-(4-(((2R,4R)-2-(2,4-dichlorophenyl)-2-methyl-1,3-dioxolan-4-yl)methoxy)phenyl)piperazin-1-yl)phenyl)-3-hydroxybenzamide] | >231 |

Tested on: Gli1 mRNA levels in the murine BCC cell line ASZ-001 (Hh pathway)
Assay: Hh pathway inhibition: endogenous Gli1 mRNA (qRT-PCR) in ASZ-001 cells
Type: cell-based
Details: Mus musculus, ASZ001, 48 h
Method: Initial Hh inhibition studies.
as §1, §2
Gene Expression Assay Protocol (ASZ-001): Cells are seeded (10,000 cells per well; 100 μL total volume per well) in a 96-well tissue culture plate. After 24 h of incubation (37° C., 5% CO2), growth media was removed and replaced with low FBS media. Cells were incubated for an additional 24 h. After this time, DMSO (vehicle control) and liposomes (Aqueous Solution) were added to the wells. […]
Rt-PCR Protocol: Following treatment and incubation periods, both RNA extraction and cDNA synthesis were performed using a TaqMan Cells-to-CT (fast) kit. cDNA synthesis utilized a BioRad MyCycler and was programmed according to the manufacturer's instructions. Quantitative RT-PCR was performed on an ABI 7500 system and made use of the following TaqMan Gene Expression Probes: mouse ActB (Mm00607939_s1) and mouse Gli1 (Mm00494654_m1). Relative gene expression levels were computed via ΔΔCT method using GraphPad Prism. Corresponding IC50 values were calculated as mean±SEM for at least three separate experiments performed in triplicate.

| SMILES | IC50 [nM] |
| --- | --- |
| C[C@]1(c2ccc(Cl)cc2Cl)OC[C@@H](COc2ccc(N3CCN(c4ccc(-n5cn[nH]c5=O)cc4)CC3)cc2)O1 [Compound 42, 4-(4-(4-(4-(((2S,4R)-2-(2,4-dichlorophenyl)-2-methyl-1,3-dioxolan-4-yl)methoxy)phenyl)piperazin-1-yl)phenyl)-1H-1,2,4-triazol-5(4H)-one] | 210 |
| C[C@]1(c2ccc(Cl)cc2Cl)OC[C@@H](COc2ccc(N3CCN(c4ccc(N)cc4)CC3)cc2)O1 [Compound 9, 4-(4-(4-(((2S,4R)-2-(2,4-dichlorophenyl)-2-methyl-1,3-dioxolan-4-yl)methoxy)phenyl)piperazin-1-yl)aniline] | 390 ± 90 |
| COc1cccc(C(=O)Nc2ccc(N3CCN(c4ccc(OC[C@@H]5CO[C@](C)(c6ccc(Cl)cc6Cl)O5)cc4)CC3)cc2)c1 [Compound 33, N-(4-(4-(4-(((2S,4R)-2-(2,4-dichlorophenyl)-2-methyl-1,3-dioxolan-4-yl)methoxy)phenyl)piperazin-1-yl)phenyl)-3-methoxybenzamide] | 5700 |
| C[C@@]1(c2ccc(Cl)cc2Cl)OC[C@@H](COc2ccc(N3CCN(c4ccc([N+](=O)[O-])cc4)CC3)cc2)O1 [Compound 6, 1-(4-(((2R,4R)-2-(2,4-dichlorophenyl)-2-methyl-1,3-dioxolan-4-yl)methoxy)phenyl)-4-(4-nitrophenyl)piperazine] | 310 ± 40 |
| C[C@]1(c2ccc(Cl)cc2Cl)OC[C@@H](COc2ccc(N3CCN(c4ccc(NC(=O)c5ccccc5O)cc4)CC3)cc2)O1 [Compound 29, N-(4-(4-(4-(((2S,4R)-2-(2,4-dichlorophenyl)-2-methyl-1,3-dioxolan-4-yl)methoxy)phenyl)piperazin-1-yl)phenyl)-2-hydroxybenzamide] | 2200 ± 300 |

Same assay, conditions: Mus musculus, ASZ001; Table P2; ASZ cells, Gli1 mRNA, 48 h incubation; read-out: IC50

| SMILES | IC50 [nM] |
| --- | --- |
| C[C@]1(c2ccc(F)cc2F)C[C@H](COc2ccc(N3CCN(c4ccc(-n5cn[nH]c5=O)cc4)CC3)cc2)CO1 [Compound P23, 4-(4-(4-(4-(((3R,5R)-5-(2,4-difluorophenyl)-5-methyltetrahydrofuran-3-yl)methoxy)phenyl)piperazin-1-yl)phenyl)-2,4-dihydro-3H-1,2,4-triazol-3-one] | 190 ± 100 |
| C[C@]1(c2ccc(F)cc2F)C[C@H](COc2ccc(N3CCN(c4ccc(-n5cnn(CC(=O)O)c5=O)cc4)CC3)cc2)CO1 [Compound P14, 2-(4-(4-(4-(4-(((3R,5R)-5-(2,4-difluorophenyl)-5-methyltetrahydrofuran-3-yl)methoxy)phenyl)piperazin-1-yl)phenyl)-5-oxo-4,5-dihydro-1H-1,2,4-triazol-1-yl)acetic acid] | 150 ± 20 |
| C[C@]1(c2ccc(F)cc2F)C[C@H](COc2ccc(N3CCN(c4ccc(NC(=O)NN)cc4)CC3)cc2)CO1 [Compound P22, N-(4-(4-(4-(((3R,5R)-5-(2,4-difluorophenyl)-5-methyltetrahydrofuran-3-yl)methoxy)phenyl)piperazin-1-yl)phenyl)hydrazinecarboxamide] | 220 ± 80 |
| C[C@]1(c2ccc(F)cc2F)C[C@H](COc2ccc(N3CCN(c4ccc(N)cc4)CC3)cc2)CO1 [Compound P20, 4-(4-(4-(((3R,5R)-5-(2,4-difluorophenyl)-5-methyltetrahydrofuran-3-yl)methoxy)phenyl)piperazin-1-yl)aniline] | 330 ± 120 |
| CC(=O)c1cccc(C(=O)Nc2ccc(N3CCN(c4ccc(OC[C@@H]5CO[C@@](C)(c6ccc(F)cc6F)C5)cc4)CC3)cc2)c1 [Compound P24, 3-acetyl-N-(4-(4-(4-(((3R,5R)-5-(2,4-difluorophenyl)-5-methyltetrahydrofuran-3-yl)methoxy)phenyl)piperazin-1-yl)phenyl)benzamide] | 24 ± 9 |

Same assay, conditions: Table 6; ASZ cells, Gli1 mRNA, 48 h incubation; read-out: IC50

| SMILES | IC50 [nM] |
| --- | --- |
| C[C@@]1(c2ccc(Cl)cc2Cl)OC[C@@H](COc2ccc(N3CCN(c4ccc(NC(=O)c5ccccn5)cc4)CC3)cc2)O1 [Compound 12, N-(4-(4-(4-(((2R,4R)-2-(2,4-dichlorophenyl)-2-methyl-1,3-dioxolan-4-yl)methoxy)phenyl)piperazin-1-yl)phenyl)picolinamide] | > 10000 |
| C[C@]1(c2ccc(Cl)cc2Cl)OC[C@@H](COc2ccc(N3CCN(c4ccc(NC(=O)c5ccncc5)cc4)CC3)cc2)O1 [Compound 19, N-(4-(4-(4-(((2S,4R)-2-(2,4-dichlorophenyl)-2-methyl-1,3-dioxolan-4-yl)methoxy)phenyl)piperazin-1-yl)phenyl)isonicotinamide] | > 10000 |
| C[C@@]1(c2ccc(Cl)cc2Cl)OC[C@@H](COc2ccc(N3CCN(c4ccc(NC(=O)c5ccc6ccccc6c5)cc4)CC3)cc2)O1 [Compound 11, N-(4-(4-(4-(((2R,4R)-2-(2,4-dichlorophenyl)-2-methyl-1,3-dioxolan-4-yl)methoxy)phenyl)piperazin-1-yl)phenyl)-2-naphthamide] | > 10000 |
| C[C@]1(c2ccc(Cl)cc2Cl)OC[C@@H](COc2ccc(N3CCN(c4ccc(NC(=O)c5ccccc5)cc4)CC3)cc2)O1 [Compound 15, N-(4-(4-(4-(((2S,4R)-2-(2,4-dichlorophenyl)-2-methyl-1,3-dioxolan-4-yl)methoxy)phenyl)piperazin-1-yl)phenyl)benzamide] | > 10000 |
| C[C@@]1(c2ccc(Cl)cc2Cl)OC[C@@H](COc2ccc(N3CCN(c4ccc(NC(=O)c5ccncc5)cc4)CC3)cc2)O1 [Compound 14, N-(4-(4-(4-(((2R,4R)-2-(2,4-dichlorophenyl)-2-methyl-1,3-dioxolan-4-yl)methoxy)phenyl)piperazin-1-yl)phenyl)isonicotinamide] | > 10000 |
| C[C@]1(c2ccc(Cl)cc2Cl)OC[C@@H](COc2ccc(N3CCN(c4ccc(NC(=O)c5ccc6ccccc6c5)cc4)CC3)cc2)O1 [Compound 16, N-(4-(4-(4-(((2S,4R)-2-(2,4-dichlorophenyl)-2-methyl-1,3-dioxolan-4-yl)methoxy)phenyl)piperazin-1-yl)phenyl)-2-naphthamide] | > 10000 |
| C[C@]1(c2ccc(Cl)cc2Cl)OC[C@@H](COc2ccc(N3CCN(c4ccc(NC(=O)c5ccc(O)cc5)cc4)CC3)cc2)O1 [Compound 31, N-(4-(4-(4-(((2S,4R)-2-(2,4-dichlorophenyl)-2-methyl-1,3-dioxolan-4-yl)methoxy)phenyl)piperazin-1-yl)phenyl)-4-hydroxybenzamide] | 3000 ± 100 |
| C[C@@]1(c2ccc(Cl)cc2Cl)OC[C@@H](COc2ccc(N3CCN(c4ccc(NC(=O)c5ccc(O)cc5)cc4)CC3)cc2)O1 [Compound 28, N-(4-(4-(4-(((2R,4R)-2-(2,4-dichlorophenyl)-2-methyl-1,3-dioxolan-4-yl)methoxy)phenyl)piperazin-1-yl)phenyl)-4-hydroxybenzamide] | > 10000 |

Same assay, conditions: Table 7; ASZ cells, Gli1 mRNA, 48 h incubation

| SMILES | IC50 (μM) |
| --- | --- |
| C[C@]1(c2ccc(Cl)cc2Cl)OC[C@@H](COc2ccc(N3CCN(c4ccc(NC(=O)c5ccoc5)cc4)CC3)cc2)O1 [Compound 35, N-(4-(4-(4-(((2S,4R)-2-(2,4-dichlorophenyl)-2-methyl-1,3-dioxolan-4-yl)methoxy)phenyl)piperazin-1-yl)phenyl)furan-3-carboxamide] | inactive |
| C[C@]1(c2ccc(Cl)cc2Cl)OC[C@@H](COc2ccc(N3CCN(c4ccc(NC(=O)c5ccsc5)cc4)CC3)cc2)O1 [Compound 36, N-(4-(4-(4-(((2S,4R)-2-(2,4-dichlorophenyl)-2-methyl-1,3-dioxolan-4-yl)methoxy)phenyl)piperazin-1-yl)phenyl)thiophene-3-carboxamide] | inactive |

Same assay, conditions: Table 7; ASZ cells, Gli1 mRNA, 48 h incubation; read-out: IC50

| SMILES | IC50 [nM] |
| --- | --- |
| C[C@]1(c2ccc(Cl)cc2Cl)OC[C@@H](COc2ccc(N3CCN(c4ccc(NC(=O)c5cccc(Cl)c5)cc4)CC3)cc2)O1 [Compound 32, 3-chloro-N-(4-(4-(4-(((2S,4R)-2-(2,4-dichlorophenyl)-2-methyl-1,3-dioxolan-4-yl)methoxy)phenyl)piperazin-1-yl)phenyl)benzamide] | > 10000 |
| C[C@]1(c2ccc(Cl)cc2Cl)OC[C@@H](COc2ccc(N3CCN(c4ccc(NC(=O)c5ccoc5)cc4)CC3)cc2)O1 [Compound 35, N-(4-(4-(4-(((2S,4R)-2-(2,4-dichlorophenyl)-2-methyl-1,3-dioxolan-4-yl)methoxy)phenyl)piperazin-1-yl)phenyl)furan-3-carboxamide] | > 10000 |
| C[C@]1(c2ccc(Cl)cc2Cl)OC[C@@H](COc2ccc(N3CCN(c4ccc(NC(=O)c5ccsc5)cc4)CC3)cc2)O1 [Compound 36, N-(4-(4-(4-(((2S,4R)-2-(2,4-dichlorophenyl)-2-methyl-1,3-dioxolan-4-yl)methoxy)phenyl)piperazin-1-yl)phenyl)thiophene-3-carboxamide] | > 10000 |

Same assay, conditions: Table P2; ASZ cells, Gli1 mRNA, 48 h incubation; read-out: IC50

| SMILES | IC50 [nM] |
| --- | --- |
| C[C@]1(c2ccc(F)cc2F)C[C@H](COc2ccc(N3CCN(c4ccc(NC(=O)c5cccnc5)cc4)CC3)cc2)CO1 [Compound P26, N-(4-(4-(4-(((3R,5R)-5-(2,4-difluorophenyl)-5-methyltetrahydrofuran-3-yl)methoxy)phenyl)piperazin-1-yl)phenyl)nicotinamide] | 38 |
